Molecules are shown by their SMILES. ≈ marks a conversion by molar mass, not a printed value.

Series [1] is described as follows: Stability in aqueous buffer assessed as hydrolysis half life. The format is physicochemical.
A short description of series [2]: Dissociation constant, pKa of the compound. The format is physicochemical.
Series [3] can be described thus: Solubility in isopropyl myristate. The format is physicochemical.
Series [4] in a line: Permeability across hairless mouse skin from isopropyl myristate. The format is ADME, tissue-based, Zone of skin. The settings on record: read-out: permeability (converted).
A short description of series [5]: Partition coefficient, log K between isopropyl myristate and pH 4.0 buffer. The format is ADME. To be noted: isopropyl myristate/pH 4.0 buffer.
Series [6] has as its system Zone of skin. Kind of series: Drug level in mouse skin. To be noted: in vitro. The format is ADME, tissue-based.

In the case of `COC(=O)N(C)COC(=O)C(C)c1ccc(CC(C)C)cc1` (centres undefined), the half-life in series [1] was determined as 4.11 min. For the same compound, the pKa in series [2] is 4.41.
The compound `COC(=O)N(C)COC(=O)[C@@H](C)c1ccc2cc(OC)ccc2c1` returned a solubility in series [3] of 5.16 mM (≈ 1710 µg/mL). Moreover, the Papp in series [4] was 5.28 ×10⁻⁶ cm/s. In series [1], the half-life amounted to 2 min. Moreover, the “log K” value in series [5] stood at 1.67. The Drug uptake in series [6] was 4.21 µmol. This compound had a pKa in series [2] of 4.2.
As to `CCOC(=O)c1ccc(N(COC(=O)[C@@H](C)c2ccc3cc(OC)ccc3c2)C(=O)OC)cc1`, in series [1], the half-life was found to be 156 min. In addition, the pKa in series [2] is 4.2.
For `COC(=O)N(COC(=O)[C@@H](C)c1ccc2cc(OC)ccc2c1)c1ccc(OC)cc1`, in series [1], the half-life came out at 49.8 min. Further, in series [2], the pKa worked out at 4.2.
Regarding `COC(=O)N(COC(=O)[C@@H](C)c1ccc2cc(OC)ccc2c1)c1ccccc1`, the half-life in series [1] worked out at 120 min. This compound yielded a pKa in series [2] of 4.2.
Take `COC(=O)N(C)COC(=O)Cc1c(C)n(C(=O)c2ccc(Cl)cc2)c2ccc(OC)cc12`: the half-life in series [1] is 3.65 min. In series [2], this compound had a pKa of 4.5.
Regarding `CCn1cc(C(=O)OCN(C)C(=O)OC)c(=O)c2ccc(C)nc21`, in series [1], the half-life is 40 min. In series [2], this compound came in with a pKa of 6.
In series [6], `COc1ccc2cc([C@H](C)C(=O)O)ccc2c1` [NAPROXEN] had a Drug uptake of 2.71 µmol.

The half-life is how long it takes for the measured level to halve. A word on the pKa: it is the pH at which an ionisable group is half protonated. The solubility is the concentration that dissolves in the medium under given conditions. Higher therefore signals a readily soluble substance.

Source of the values: ChEMBL document CHEMBL1139084, “N-Alkyl-N-alkyloxycarbonylaminomethyl (NANAOCAM) prodrugs of carboxylic acid containing drugs” (Bioorg Med Chem Lett, 2007).
